Experimental data: ChEMBL document CHEMBL4190297, “Cafestol, a Bioactive Substance in Coffee, Has Antidiabetic Properties in KKAy Mice” (J Nat Prod, 2017)
Calls of active or inactive are those of the source.

How the values were obtained:
Assay type in all cases: functional, organism-based
Mus musculus [1] = organism: Mus musculus; experiment: Effect on GLUT2 mRNA expression levels in adipose tissue of KK-Ay diabetic mouse model at 0.4 to 1.1 mg added daily to normal chow pellets for 10 weeks by qRT-PCR analysis
Mus musculus [2] = organism: Mus musculus; experiment: Effect on G6PD mRNA expression levels in adipose tissue of KK-Ay diabetic mouse model at 0.4 to 1.1 mg added daily to normal chow pellets for 10 weeks by qRT-PCR analysis
Mus musculus [3] = organism: Mus musculus; experiment: Effect on SOD1 mRNA expression levels in liver of KK-Ay diabetic mouse model at 0.4 to 1.1 mg added daily to normal chow pellets for 10 weeks by qRT-PCR analysis
Mus musculus [4] = organism: Mus musculus; experiment: Effect on IRS2 mRNA expression levels in liver of KK-Ay diabetic mouse model at 0.4 to 1.1 mg added daily to normal chow pellets for 10 weeks by qRT-PCR analysis
Mus musculus [5] = organism: Mus musculus; experiment: Effect on Hprt1 mRNA expression levels in liver of KK-Ay diabetic mouse model at 0.4 to 1.1 mg added daily to normal chow pellets for 10 weeks by qRT-PCR analysis

Measured: Activity

C[C@@]12CCc3occc3[C@H]1CC[C@@]13C[C@H](CC[C@H]12)[C@@](O)(CO)C3
inactive: Mus musculus [1] | Mus musculus [2] | Mus musculus [3] | Mus musculus [4] | Mus musculus [5]
